Values joined by “and” are separate entries in the source; they are usually repeats but may differ in a detail not shown here. Identical values can stand only once.
Legend:
[1] = tested on: serum cytokines/chemokines; test: CLP model: serum cytokines/chemokines (Luminex); assay type: in vivo, mouse; settings: 24 h and 48 h post-CLP
Protocol: At the indicated times (pre-CLP, 24 h, 48 h, and 72 h post-CLP) ˜500 μl blood was collected in a pre-labeled Eppendorf tube and left for 30 min to allow clotting. The samples were centrifuged at 1800 g (3000 rpm) for 10 min at 4° C., […]. Serum was transferred to a new pre-labeled Eppendorf tube and kept at 4° C. Excess serum was stored at −80° C. Cytokine/chemokine measurement was performed using the Luminex MAGPIX system, and analysis was performed with Milliplex software.
Cytokine/chemokine measurement was performed using the Luminex MAGPIX system, and analysis was performed with Milliplex software. NGAL and Cystatin C were tested by Luminex Multiplex kit (Millipore, MKI2MAG-P4k). All reagents were provided with the kit, and all reagents were prepared according to the manufacturers' protocols. The assays were performed in 96-well plates according to the protocol provided. Plate reading was performed with the Luminex MAGPIX system (Luminex Corp.) and analyzed using Milliplex software (Millipore). […] The raw data was measured as mean fluorescence intensity (MFI) and the concentration of each analyte for each sample was calculated using a 4- or 5-parameter logistic fit curve generated for each analyte from the 7 standards. The lower limit of quantification (LLOQ) was determined using the lowest standard that was at least 3 times above background. […]

CLP-induced sepsis [2] = test: CLP model: organ dysfunction analysis 24 hours post CLP (blood gas, hematology, biochemistry, lung weight, NGAL, cystatin C, C3a, C5a); assay type: in vivo, mouse; settings: CLP + Ertapenem mice
Protocol: 22-24 h after CLP, mice were weighed, assigned an MSS clinical score and sacrificed for the evaluation of organ dysfunction. Mice were bled through the retro-orbital sinus (venous blood). Naïve mice were bled under isoflurane analgesia; CLP mice were bled without analgesia due to the concern of death. 100 μl blood was collected using heparin-coated capillary tube (Paul Marienfeld, K G, Lauda-Knigshofen, Germany) and immediately tested using STAT profile prime machine (Nova Biomedical, Waltham, Mass., USA). […] was collected into EDTA tubes (MiniCollect, Greiner Bio-One, […], Austria), tubes were rotated to prevent blood clotting and kept at 4° C. Hematology analysis was performed by AML laboratories (Herzliya, Israel). About 500 μl blood was collected to a pre-labeled Eppendorf tube and left for -30 min to allow clotting. The samples were centrifuged at 1800 g (3000 rpm) for 10 min at 4° C., 200 μl serum was transferred to a new pre-labeled Eppendorf tube and kept at 4° C. Excess serum was stored in -80° C. Biochemistry analysis was performed by AML laboratories (Herzliya, Israel). […] Blood was collected to pre-labeled Eppendorf tubes and left for -30 min to allow clotting. Tubes were centrifuged at 1800 g (3000 rpm) for 10 min at 4° C. Serum was transferred to new pre-labeled Eppendorf tubes and stored at -80° C. for Luminex (NGAL and Cystatin C) and ELISA (C3a and C5a) evaluation. Cytokine/chemokine measurement was performed using the Luminex MAGPIX system, and analysis was performed with Milliplex software. NGAL and Cystatin C were tested by Luminex Multiplex kit (Millipore, […]). All reagents were provided with the kit, and all reagents were prepared according to the manufacturers' protocols. The assays were performed in 96-well plates according to the protocol provided. Plate reading was performed with the Luminex MAGPIX system (Luminex Corp.) and analyzed using Milliplex software (Millipore). […] The raw data was measured as mean fluorescence intensity (MFI) and the concentration of each analyte for each sample was calculated using a 4- or 5-parameter logistic fit curve generated for each analyte from the 7 standards. […] The calculation of the LLOQ was performed by subtracting the MFI of the background (diluent) from the MFI of the lowest standard concentration and back-calculating the concentration from the standard curve. Complement components were tested by sandwich ELISA kits: […]038) and C5a (EA100633, OriGene, Rockville, Md., USA). All reagents were provided with the kits and prepared according to the manufacturers' protocols. Assays were performed in 96-well plate according to the protocols provided. OD plate reading was performed with the Infinite F50 (TECAN, Mainnedorf, Switzerland) and analyzed using Magellan software (TECAN). The raw data was measured as 450 nm optical density (OD) and the concentration was calculated using a linear standard curve generated from 6-7 standards. The lower limit of quantification (LLOQ) was determined using the lowest standard. The calculation of the LLOQ was performed by subtracting the OD of the background (diluent) from the OD of the lowest standard concentration and back-calculating the concentration from the standard curve. […] N=40) was assigned with a clinical score, weighed, and blood samples were drawn from the retro-orbital sinus for further analyses. Mice were sacrificed and their lungs were harvested and weighed. To elucidate the effects of CLP on organ dysfunction and its correlation with the MSS clinical score, blood was tested for multiple parameters of organ dysfunction relating to five major systems: cardiovascular, respiratory, renal, hepatic, and hematological, as well as complement and several metabolites (Tables 24A and 24B).

CLP-induced sepsis [3] = test: Cecal ligation puncture (CLP) mouse model for sepsis: survival, weight and MSS clinical score; assay type: in vivo
Description: The cecal ligation puncture (CLP) model has been proposed to more closely replicate the nature and course of clinical sepsis in humans, as compared to other models, and is considered by many researchers as the gold-standard animal model of sepsis. The CLP model involves the ligation of the cecum, usually below the ileocecal junction (to prevent bowel obstruction), and at least one centimeter above the distal end of the cecum, otherwise the sepsis induced is very mild. The length of ligated cecum, defined as the distance from the distal end of the cecum to the ligation point, determines the severity of the sepsis induced. Following ligation, the cecum is perforated, and this step too can be adjusted to modulate the severity of the sepsis ensuing. The perforation of the cecum is followed by the release of fecal material into the peritoneal cavity to induce a polymicrobial infection, which results in an exacerbated immune response. The benefits of the CLP model are its reproducibility and potential to alter the severity of sepsis by controlling needle size, number of cecal punctures, and antibiotics utilization.
The study reported here summarizes the effect of apoptotic cells administered 4 hours after the end of CLP on the development of CLP-induced sepsis in a female C57BL/6 mouse model.
C57BL/6 female mice, 10-13 wk old, were purchased from ENVIGO (Israel). Mice were kept in an SPF animal facility in compliance with institutional IACUC guidelines. Mice were weighed daily and monitored 2-3 times a day for clinical signs and determination of the murine sepsis score (MSS) clinical score (according to Shrum, B., Anantha, R. V., Xu, S. X., Donnelly, M., Haeryfar, S. M. M., McCormick, J. K., and Mele, T. (2014). A robust scoring system to evaluate sepsis severity in an animal model. BMC Res. Notes 7, 1-11). The endpoint was defined as total score of 15 or maximum score in one of the categories in the table.
The procedure was performed as briefly described below: Cecal Ligation and Puncture (CLP)—Experimental method. Briefly, the mice were operated under isoflurane anesthesia machine. Mice were anesthetized by 4% isoflurane in the chamber for about 1 minute, following anesthesia mice were transferred to the operation table and connected to the isoflurane nuzzle with 2% isoflurane. Mice were administered analgesics by sub-cutaneous (S.C.) injection of tramadol 5 mg/kg in 0.1 ml of pre-warmed 0.9% saline solution. After opening the abdomen of the mouse by a midline incision, the cecum was exposed. The cecum was ligated 75% above its distal end with a 4-0 silk suture. Following ligation, the cecum was perforated twice with a 19-gauge needle, using the through-and-through technique (introducing a needle through the cecum). […]

Raji cells = test: Flow cytometry of CD20+ Raji tumor cells in spleen, bone marrow and liver of leukemic mice; assay type: in vivo, mouse; settings: for CD20+, Bone marrow / CD20+, Liver / CD20+, Spleen: In Vivo Experiment 023, individual mice
Protocol: Mouse spleen, liver, and bone marrow were collected from sacrificed mice (following deterioration of clinical signs, as defined above) and analyzed by flow-cytometry (FACSCalibur, BD, Franklin Lakes, N.J., USA) for the presence of the Raji tumor (anti-CD20).
Upon sacrifice, following the deterioration of clinical signs as described above, organs of interest were collected for analysis, namely the liver, spleen, and bone-marrow. Cells of these target organs were analyzed by flow cytometry for the presence of human tumor cells (Raji cells are positive for CD20).
Liver, spleen, and bone marrow cells were collected and analyzed by flow cytometry (FACSCalibur, BD) for the presence of human CD20-FITC (Biolegend, Cat. #302206); mIgG1-FITC (Biolegend, Cat. #400110).
Mouse spleen, liver, and bone marrow cells were collected from mice who were sacrificed following clinical deterioration, as defined in the methods) and analyzed by flow cytometry (FACSCalibur, BD) for the presence of human CD20 (FITC).
Expression (%) of CD20 tumor cells in the spleen, bone marrow, and liver, as determine by flow cytometry. Mouse spleen, liver, and bone marrow were collected from sacrificed mice (following clinical deterioration, as defined in methods) and analyzed by flow cytometry (FACSCalibur, BD) for the presence of human CD20 (FITC).

[4] = CLP mice given ertapenem, Allocetra-OTS 20×10^6 cells IV 4 h after CLP

For `C[C@@H](O)[C@H]1C(=O)N2C(C(=O)O)=C(S[C@@H]3CN[C@H](C(=O)Nc4cccc(C(=O)O)c4)C3)[C@H](C)[C@H]12` [Ertapenem], the “cytokine/chemokine release after sepsis induction” value [1] was “no beneficial effects”, the “Basophils, median” value (CLP-induced sepsis [2]) was 0 10^3/μl and the “C3a, median” value (CLP-induced sepsis [2]) was 4835 ng/mL. The “C5a, median” value (CLP-induced sepsis [2]) was 1809 ng/mL, the “Chloride, median” value (CLP-induced sepsis [2]) was 121.1 mmol/L and the “Cholesterol, median” value (CLP-induced sepsis [2]) was 108 mg/dL. The “Eosinophils, median” value (CLP-induced sepsis [2]) was 0 10^3/μl, the “Glucose, median” value (CLP-induced sepsis [2]) was 59.5 mg/dL and the “HCT, median” value (CLP-induced sepsis [2]) was 40.9%. The “Hemoglobin, median” value (CLP-induced sepsis [2]) was 12.4 g/dL, the “Lactate, median” value (CLP-induced sepsis [2]) was 13 mg/dL and the “Lymphocytes, median” value (CLP-induced sepsis [2]) was 1.55 10^3/μl. The “MCH, median” value (CLP-induced sepsis [2]) was 14.9 pg, the “MCHC, median” value (CLP-induced sepsis [2]) was 31.2 g/dL and the “MCV, median” value (CLP-induced sepsis [2]) was 47.9 fL. The “Monocytes, median” value (CLP-induced sepsis [2]) was 0 10^3/μl, the “Neutrophils, median” value (CLP-induced sepsis [2]) was 0.31 10^3/μl and the “Phosphorus, median” value (CLP-induced sepsis [2]) was 10.2 mg/dL. For the same compound, the “Platelets, median” value (CLP-induced sepsis [2]) was 99 10^3/μL, the “Potassium, median” value (CLP-induced sepsis [2]) was 6.6 mmol/L and the “RBC, median” value (CLP-induced sepsis [2]) was 8.36 10^6/μL. For the same compound, the “Sodium, median” value (CLP-induced sepsis [2]) was 154.1 mmol/L, the “WBC, median” value (CLP-induced sepsis [2]) was 1.94 10^3/μL and the “final clinical score (MSS plateau value)” value (CLP-induced sepsis [3]; CLP mice given ertapenem) was 14.37. For the same compound, the median survival (CLP-induced sepsis [3]; [4]) was 48 h, the mortality (CLP-induced sepsis [3]; [4]) was 93% and the survival rate (CLP-induced sepsis [3]; Ertapenem with vehicle control, n=15) was 6.6%.

For Rituximab [RtX], the “CD20+, Bone marrow” value (Raji cells; RtX 2 mg/kg) was 0.8% and 3.1% and 3%, the “CD20+, Liver” value (Raji cells; RtX 2 mg/kg) was 2.1% and 1.2% and 0.4% and the “CD20+, Spleen” value (Raji cells; RtX 2 mg/kg) was 0% (2×) and 0.7%. The “CD20+, Bone marrow” value (Raji cells; RtX 5 mg/kg) was 2.1% and 0.5% and 4.3% and 2.2% and 2.6%, the “CD20+, Liver” value (Raji cells; RtX 5 mg/kg) was 1% and 7.3% and 1.4% and 0.9% and 5.7% and the “CD20+, Spleen” value (Raji cells; RtX 5 mg/kg) was 0% (3×) and 0.1% (2×). For the same compound, the “CD20+ average tumor cell population, Bone Marrow” value (Raji cells; rtx 2 mg/Kg) was 2.3 ± 1.3%, the “CD20+ average tumor cell population, Liver” value (Raji cells; rtx 2 mg/Kg) was 1.2 ± 0.8% and the “CD20+ average tumor cell population, Spleen” value (Raji cells; rtx 2 mg/Kg) was 0.2 ± 0.4%. The “CD20+ average tumor cell population, Bone Marrow” value (Raji cells; rtx 5 mg/Kg) was 1.7 ± 1.5%, the “CD20+ average tumor cell population, Liver” value (Raji cells; rtx 5 mg/Kg) was 3 ± 2.5% and the “CD20+ average tumor cell population, Spleen” value (Raji cells; rtx 5 mg/Kg) was 0%.

From US11596652B2, “Early apoptotic cells for use in treating sepsis” (ENLIVEX THERAPEUTICS LTD., priority 2015, dated 2023)
